# Test results: patent US9788539B2, “Platelet protection solution having beta-galactosidase and sialidase inhibitors” (Velico Medical, Inc., priority 2011, dated 2017)
# Entries after “also recorded” stand apart in the source; their conditions may differ.
# Key:
# Assay type in all cases: cell-based
# human platelets [1] = experiment: Human platelets stored in 30% plasma and 70% PASa at RT, flow cytometry and pH; conditions: 7 days at RT
# Description: Human platelets were obtained as described in Example 13. The platelet pellet was resuspended in PPP, ⅕ volumes of original PRP, and aliquoted into wells of a 96-well microtiter plate (60 μL per well). PAS (designated as PASa), containing 7.15 mM Na2HPO4, 2.24 mM NaH2PO4, 10 mM sodium citrate, 30 mM sodium acetate, 79.2 mM NaCl, 5.0 mM KCl, and 1.5 mM MgCl2, was added to corresponding wells at 140 μL per well, DANA was added to 0, 0.1, and 0.5 mM from 10 or 100 mM stock in PBS to proper wells. The sample volumes in the wells were evened out with PBS. The plate was then covered with a gas-permeable film and placed on a shaker. Platelet size and density were measured by forward (FSC) and side scatter (SSC) on a FACSCalibur flow cytometer (BD) at Day 7, and pH was checked at Day 9.
# mouse platelets [2] = experiment: Sialidase (neuraminidase)-induced loss of platelet surface receptors, flow cytometry and immunoblot; conditions: mouse platelets, flow cytometry and Western blot
# human platelets [3] = experiment: Human platelets stored in plasma at RT, size and density by FSC/SSC; conditions: 72 h at RT in plasma
# [4] = system: Serratia marcescens strain (ATCC #43862); experiment: Biofilm formation of S. marcescens, crystal violet; conditions: 1 mM DANA, 48 h, crystal violet A595 nm
# Description: To prepare the seed culture, the cryostock of Serratia marcescens was inoculated into 3 mL of brain-heart infusion broth with a cotton swab and incubated at 37° C. with agitation at 250 rpm for 6 h. The cell density was determined at 600 nm on a dual wavelength spectrometer and diluted to 0.5 McFarland Standard (1.5×10^8 cells/mL) with sterile PBS. Ten μL of the diluted culture was inoculated into 140 μL of 30% plasma in PAS, 30% PC by volume in PAS or 100% plasma, supplemented with or without 1 mM DANA, in the wells of 96-well PVC plates (Corning Biosciences). For each media, six replicates were performed. Ten μL of PBS was inoculated into the control wells. The microtiter plates were then sealed with sterile porous film (VWR) and placed on a platform shaker. The cultures were incubated for 48 h with gentle shaking (˜100 rpm). The cultures were gently mixed and transferred to a polystyrene plate for the determination of planktonic cell density at OD 595 nm. The wells on the original microtiter plates were washed with 3×200 μL of PBS, air dried, stained for 15 min with an aqueous solution of 0.1% (wt/vol) crystal violet, rinsed with water, and air dried for 1 hr. The crystal violet retained by the biofilm was eluted with 200 μL of dimethyl sulfoxide (DMSO) or 30% acetic acid, and read at 595 nm.
# mouse platelets [5] = experiment: Mouse platelets stored at RT for 48 h with different concentrations of DANA, counted by flow cytometry; conditions: 0.1 mM DANA, 48 h at RT
# Description: Mouse platelets were isolated as described in Example 3, re-suspended in platelet resuspension buffer and split to four aliquots. […] The samples were incubated for 30 min at 37° C., centrifuged and supernatants removed. The platelets re-suspended in plasma. DANA and glucose were restored to their initial concentrations. The platelet suspensions were stored at RT. After 48 h, platelets under each storage condition were counted by flow cytometry.
smiles,measurement,setting,value
CC(=O)NC1C(O)C=C(C(=O)O)OC1C(O)C(O)CO (stereo not shown) [DANA],platelet microparticles (G2),human platelets [1]; 0.1 mM DANA (41.5% without),23.95%
same,total acquired events gated as platelets (G1),human platelets [1]; 0.1 mM DANA (55% without),over 70%
same,platelet microparticles (G2),human platelets [1]; 0.5 mM DANA,13.52%
same,total acquired events gated as platelets (G1),human platelets [1]; 0.5 mM DANA,81.6%
same,"loss (shedding) of platelet GPIbα and GPV induced by sialidase/neuraminidase, in presence of inhibitor",mouse platelets [2],completely prevented this loss; also recorded: prevented all GPIbα and GPV shedding; also recorded: inhibits the loss of platelet GPIbα
same,platelet shape by side and forward scatter,human platelets [3]; 0.5 mM DANA,visible improvement of the platelet shape
same,mean fluorescence intensity (MFI) of platelet count/SSC histogram,human platelets [3]; with DANA vs without,increased
same,formation of biofilm,[4],negatively impacted
same,platelets recovered,"mouse platelets [5]; 8 mM glucose, vs 0 mM DANA",approximately 5 fold
same,size and density of platelets by dot plot analysis,mouse platelets [5],efficiently preserved the size and density of platelets
